Measured values: ChEMBL document CHEMBL1201862, “PubChem BioAssay data set” (2004)
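Assay format: 96-well plates, 48-hour exposure. GI50 is the concentration that inhibits growth by half.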 Activity calls are given as the source filed them. Cut-off read from the data, not from the text of the source: active = GI50 up to about 1.1 µM and inactive = higher.

What was measured:
Test in all cases: NCI-60 cell line screen, 48 h
SK-OV-3 = tested on: SK-OV-3
NCI/ADR-RES = tested on: NCI/ADR-RES
A549 = tested on: A549
SNB-75 = tested on: SNB-75
T47D = tested on: T47D
SR = tested on: SR
HL-60 = tested on: HL-60
HOP-62 = tested on: HOP-62
CAKI-1 = tested on: CAKI-1
CCRF-CEM = tested on: CCRF-CEM
MCF7 = tested on: MCF7
K562 = tested on: K562
OVCAR-5 = tested on: OVCAR-5
NCI-H460 = tested on: NCI-H460
U-251 = tested on: U-251
HCT-116 = tested on: HCT-116
NCI-H522 = tested on: NCI-H522
BT-549 = tested on: BT-549
PC-3 = tested on: PC-3
SW-620 = tested on: SW-620

Structure (SMILES) | GI50 (SK-OV-3) | GI50 (NCI/ADR-RES) | GI50 (A549) | GI50 (SNB-75) | GI50 (T47D) | GI50 (SR) | GI50 (HL-60) | GI50 (HOP-62) | GI50 (CAKI-1) | GI50 (CCRF-CEM) | GI50 (MCF7) | GI50 (K562) | GI50 (OVCAR-5) | GI50 (NCI-H460) | GI50 (U-251) | GI50 (HCT-116) | GI50 (NCI-H522) | GI50 (BT-549) | GI50 (PC-3) | GI50 (SW-620)
CCCNc1ncnc2[nH]ncc12 | > 100 µM (inactive) | > 100 µM (inactive) | > 100 µM (inactive) | > 100 µM (inactive) | > 100 µM (inactive) | > 100 µM (inactive) | > 100 µM (inactive) | > 100 µM (inactive) | > 100 µM (inactive) | > 100 µM (inactive) | 91.4 µM (inactive) | > 100 µM (inactive) | > 100 µM (inactive) | > 100 µM (inactive) | > 100 µM (inactive) | > 100 µM (inactive) | > 100 µM (inactive) | > 100 µM (inactive) | > 100 µM (inactive) | > 100 µM (inactive)
CCOC(=O)CC[C@H](NC(=O)[C@H](N)Cc1ccc(N(CCCl)CCCl)cc1)C(=O)OCC | 36.3 µM (inactive) | 9.42 µM (inactive) | 35.4 µM (inactive) | 12 µM (inactive) | 8.07 µM (inactive) | 1.91 µM (inactive) | 5.3 µM (inactive) | 21.6 µM (inactive) | 4.65 µM (inactive) | 1.14 µM (inactive) | 20.6 µM (inactive) | 22.6 µM (inactive) | 26.4 µM (inactive) | 2.61 µM (inactive) | 16.8 µM (inactive) | 22.2 µM (inactive) | 4.53 µM (inactive) | 26.2 µM (inactive) | 20.8 µM (inactive) | 18 µM (inactive)
CCOP(=O)(OCC)/C(C#N)=C\c1cccc2ccccc12 | 45.5 µM (inactive) | 52.7 µM (inactive) | > 100 µM (inactive) | 22.4 µM (inactive) | 26.8 µM (inactive) | 31.8 µM (inactive) | 23 µM (inactive) | > 56.6 µM (inactive) | 74.3 µM (inactive) | 30.1 µM (inactive) | 39.9 µM (inactive) | 31 µM (inactive) | > 100 µM (inactive) | > 91.8 µM (inactive) | > 67.5 µM (inactive) | 46 µM (inactive) | > 88.1 µM (inactive) | 51.9 µM (inactive) | 64 µM (inactive) | 68.5 µM (inactive)
C/C(=N\NC(=S)Nc1ccccc1)c1nc2cccnc2[nH]1 | 5.36 µM (inactive) | 3.3 µM (inactive) | 3.31 µM (inactive) | 12.2 µM (inactive) | 0.193 µM (active) | 0.766 µM (active) | 2.92 µM (inactive) | 8.47 µM (inactive) | 4.63 µM (inactive) | 0.389 µM (active) | 0.338 µM (active) | 3.35 µM (inactive) | 4.79 µM (inactive) | 1.54 µM (inactive) | 2.49 µM (inactive) | 1.63 µM (inactive) | 2.18 µM (inactive) | 5.26 µM (inactive) | 3.4 µM (inactive) | 4.97 µM (inactive)
O=C1c2ccccc2C(=O)c2c(NC3CCCCC3)ccc(Nc3ccc(S(=O)(=O)O)cc3)c21 | > 100 µM (inactive) | > 100 µM (inactive) | 33.9 µM (inactive) | > 100 µM (inactive) | 29 µM (inactive) | 36.1 µM (inactive) | 31.6 µM (inactive) | > 100 µM (inactive) | > 100 µM (inactive) | 26.3 µM (inactive) | 21.3 µM (inactive) | 52 µM (inactive) | > 100 µM (inactive) | 62.5 µM (inactive) | 29.6 µM (inactive) | 29.7 µM (inactive) | 20.6 µM (inactive) | 43.8 µM (inactive) | 22.6 µM (inactive) | 35.2 µM (inactive)
Oc1c2ccccc2c2c3c(cccc13)N=N2 [SP-600125] | 21 µM (inactive) | 22.6 µM (inactive) | 14.9 µM (inactive) | 16.9 µM (inactive) | > 100 µM (inactive) | 13.1 µM (inactive) | 42.1 µM (inactive) | 69.3 µM (inactive) | 3.56 µM (inactive) | 16.1 µM (inactive) | 49 µM (inactive) | 48.6 µM (inactive) | 24.4 µM (inactive) | 9.86 µM (inactive) | 23.1 µM (inactive) | 44.6 µM (inactive) | 12.2 µM (inactive) | 30.8 µM (inactive) | 23.3 µM (inactive) | 10.9 µM (inactive)
OC(c1ccc2c(c1)OCO2)c1ccc2c(c1)OCO2 | > 100 µM (inactive) | > 100 µM (inactive) | > 100 µM (inactive) | 80.4 µM (inactive) | > 100 µM (inactive) | > 100 µM (inactive) | > 100 µM (inactive) | > 100 µM (inactive) | > 100 µM (inactive) | > 100 µM (inactive) | > 100 µM (inactive) | > 100 µM (inactive) | > 100 µM (inactive) | > 100 µM (inactive) | > 100 µM (inactive) | > 100 µM (inactive) | > 100 µM (inactive) | > 100 µM (inactive) | > 100 µM (inactive) | > 100 µM (inactive)
Nc1nc(SCc2ccccc2[N+](=O)[O-])c2[nH]cnc2n1 | > 71 µM (inactive) | 26.7 µM (inactive) | > 76.6 µM (inactive) | > 42.5 µM (inactive) | 23.3 µM (inactive) | > 51.6 µM (inactive) | > 53.6 µM (inactive) | > 69.5 µM (inactive) | 38.7 µM (inactive) | > 44.8 µM (inactive) | 51.5 µM (inactive) | > 55.2 µM (inactive) | 42.3 µM (inactive) | > 40.2 µM (inactive) | > 61.9 µM (inactive) | > 60.1 µM (inactive) | > 31.8 µM (inactive) | 26.2 µM (inactive) | 31.5 µM (inactive) | > 73.6 µM (inactive)
COc1ccc(/N=N/C(=O)NC(CC(C)C)C(N)=O)cc1 (stereo not given) | > 100 µM (inactive) | 55.5 µM (inactive) | 9.14 µM (inactive) | > 100 µM (inactive) | 12.2 µM (inactive) | 5.64 µM (inactive) | > 100 µM (inactive) | > 100 µM (inactive) | > 31.6 µM (inactive) | > 27.7 µM (inactive) | 24.3 µM (inactive) | 1.43 µM (inactive) | > 100 µM (inactive) | 11.6 µM (inactive) | > 100 µM (inactive) | > 31.6 µM (inactive) | > 100 µM (inactive) | 47.1 µM (inactive) | > 100 µM (inactive) | > 29.2 µM (inactive)
CC12ON(P(=O)(c3ccccc3)c3ccccc3)C(C)(c3ccccc31)c1ccccc12 | > 100 µM (inactive) | > 100 µM (inactive) | > 100 µM (inactive) | > 100 µM (inactive) | 51.3 µM (inactive) | 46.1 µM (inactive) | 55.6 µM (inactive) | > 100 µM (inactive) | > 100 µM (inactive) | 46.2 µM (inactive) | 0.675 µM (active) | 88.3 µM (inactive) | > 100 µM (inactive) | 67.5 µM (inactive) | > 100 µM (inactive) | > 100 µM (inactive) | > 100 µM (inactive) | > 100 µM (inactive) | > 100 µM (inactive) | > 100 µM (inactive)
O=C1C(Br)=C(Br)C(=O)c2ccc(=O)ccc21 | > 100 µM (inactive) | 20 µM (inactive) | 70.6 µM (inactive) | 57.9 µM (inactive) | 24.4 µM (inactive) | 26.1 µM (inactive) | 8.47 µM (inactive) | 60.1 µM (inactive) | 28.3 µM (inactive) | 2.88 µM (inactive) | 18.6 µM (inactive) | 30.7 µM (inactive) | 50.5 µM (inactive) | 38.8 µM (inactive) | 38.3 µM (inactive) | 20 µM (inactive) | 2.67 µM (inactive) | 24.2 µM (inactive) | > 56.5 µM (inactive) | 20.8 µM (inactive)
O=C(/C=C/c1ccc(OCCSCCCCCCCCCCSCCOc2ccc(/C=C/C(=O)c3ccc(Cl)cc3)cc2)cc1)c1ccc(Cl)cc1 | 65.5 µM (inactive) | > 100 µM (inactive) | > 100 µM (inactive) | 30.8 µM (inactive) | > 100 µM (inactive) | > 92.7 µM (inactive) | > 100 µM (inactive) | 51.2 µM (inactive) | > 83.2 µM (inactive) | > 100 µM (inactive) | > 100 µM (inactive) | > 100 µM (inactive) | > 100 µM (inactive) | > 100 µM (inactive) | 65.8 µM (inactive) | > 100 µM (inactive) | > 89.3 µM (inactive) | > 100 µM (inactive) | > 100 µM (inactive) | > 100 µM (inactive)
Oc1cc(O)c2c(c1)O[C@H](c1cc(O)c(O)c(O)c1)[C@H](O)C2 [EPIGALLOCATECHIN] | 18.6 µM (inactive) | 22.6 µM (inactive) | 27.5 µM (inactive) | 31.6 µM (inactive) | 37.2 µM (inactive) | 14.4 µM (inactive) | 19.5 µM (inactive) | 19.7 µM (inactive) | 33.1 µM (inactive) | 17.9 µM (inactive) | 20.8 µM (inactive) | 20.4 µM (inactive) | 15.6 µM (inactive) | 18.3 µM (inactive) | 16.4 µM (inactive) | 19.2 µM (inactive) | 17.7 µM (inactive) | 19.2 µM (inactive) | 16.5 µM (inactive) | 17.5 µM (inactive)
COc1cccc(/C=N/C(/N=C/c2cccc(OC)c2O)c2cccc(OC)c2O)c1O | 26 µM (inactive) | 19.6 µM (inactive) | 26.7 µM (inactive) | 13.9 µM (inactive) | 15.2 µM (inactive) | 6.38 µM (inactive) | 25.9 µM (inactive) | 29.4 µM (inactive) | 19.6 µM (inactive) | 7 µM (inactive) | 18.9 µM (inactive) | 24.7 µM (inactive) | 22 µM (inactive) | 21.7 µM (inactive) | 15.6 µM (inactive) | 14.6 µM (inactive) | 21.8 µM (inactive) | 19.6 µM (inactive) | 26 µM (inactive) | 27.5 µM (inactive)
